Laboratory results reported in patent US20120093947A1, “METHOD OF TREATING REACTIVE AIRWAY DISEASE” (UNITED STATES DEPARTMENT OF VETERANS AFFAIRS, priority 2009, published 2012).

Assays:
[1] = molecular target: T1, LPO (Bos taurus, UniProt P80025); assay: Nitration of salbutamol by LPO/H2O2/NO2−, A410; type: biochemical, bovine; settings: for Nitrophenols, (%) LPO: […] NaNO2, 4 mM H2O2, 65 nM LPO, pH 7.0, 10 min, ΔA410 versus control
T1 construct: Lactoperoxidase (LPO) from bovine milk (EC 1.11.1.7); purchased Sigma-Aldrich Co. (St. Louis, Mo.); host or cells: bovine milk (natural source)
Method: (§1) Spectrophotometric Measurements. Spectra are measured using an Agilent diode array spectrophotometer model 8453 (Agilent Technologies, Inc., Santa Clara, Calif.). Nitration of salbutamol is studied by measuring absorption spectra at designated time points following the start of the reaction. Samples are prepared in 100 mM phosphate buffers (pH 7.0). All buffers contained DTPA (100 μM) or are pretreated with Chelex-100 before use, and measurements are performed at ambient temperature of 20° C. Typically, the reaction is started by the addition of a small aliquot of H2O2 or the desired peroxidase. Time course measurements are carried out following changes in absorbance at 410 nm in 30 second intervals versus absorbance at 800 nm, where none of the compounds absorb.
Ascorbate (AscH^−) is an effective natural antioxidant protecting airways from oxidative injury. Cross et al., (1994) Environ. Health Perspect. 102 (suppl. 10):185-191. Its concentration in the respiratory tract lining fluid is estimated to be near 100 μM (Id.). We examine the effect of AscH^− on nitration of 100 μM salbutamol by 67 nM LPO, 4 mM H2O2, and 3.5 mM of NaNO2 by measuring absorption at 410 nm. […] The duration of the lag period depends on AscH^− concentration. […] See, e.g., Reszka et al. (1999) Free Radic. Biol. & Med. 26:669-678.
As noted earlier, methimazole is an antithyroid drug, an effective inhibitor of LPO activity. 100 μM of salbutamol is reacted with 73 nM LPO, 3.5 mM NaNO2, and 4 mM H2O2 at pH buffer 7.0 in the presence of 0, 27, 55, and 109 μM methimazole (shown in FIG. 9, section A, traces a-d, respectively). Traces c and d also indicate by arrow when additional LPO is added to the system. […] In contrast to effects exerted by AscH^− or SCN^−, methimazole-dependent inhibition is permanent and is probably due to inactivation of the enzyme, since a second dose of LPO reactivates the process (FIG. 9, section A, trace c).
Dapsone, an anti-inflammatory and anti-leprotic agent, is a potent inhibitor of LPO and MPO. See, e.g., Kettle et al. (1991) Biochem. Pharmacol. 41(10):1485-1492; Bozeman et al. (1992) Biochem. Pharmacol. 44(2):553-563. 97 μM of salbutamol is reacted with 65 nM LPO, 3.4 mM NaNO2, and 4 mM H2O2 at pH buffer 7.0 in the presence of 0, 2.5, 5, 10, 50, and 100 μM dapsone (shown in FIG. 10, traces a-f, respectively). The arrows in traces d and e of FIG. 10 indicate where additional LPO is added to the system. […] Dapsone at 50 μM inhibited nitration by approximately 86%. Given the high concentrations of NaNO2 and H2O2 used in this system, dapsone appears to be a potent blocker of nitration.
The extent of nitration is expressed as a change in ΔA410 versus control (dapsone omitted) taken as 100% after 10, 30, and 60 minute reactions for LPO, MPO, and EPO nitrating systems, respectively. Results equal the means±SE of at least two measurements. In the LPO system, 100 μM of salbutamol, 3.4 mM of NaNO2, 4 mM of H2O2, and 65 nM of LPO is used. In the MPO system, 50 μM of salbutamol, 5.0 mM of NaNO2, 5 mM of H2O2, and 0.2 U/mL of MPO is used. In the EPO system, 50 μM of salbutamol, 5 mM of NaNO2, 2 mM of H2O2, and 0.075 U/mL of EPO is used. All reactions were carried out in pH 7.0 phosphate buffer containing DMSO (5% v/v). The term “nitrophenols” includes nitrosalbutamol (N-Sal) and salbutamol-derived nitrophenol (N—ArOH).

[2] = molecular target: T2, EPO (Homo sapiens, UniProt P11678); assay: Nitration of salbutamol by EPO/H2O2/NO2−, A410; type: biochemical; settings: 50 μM salbutamol, 5 mM NaNO2, 2 mM H2O2, 0.075 U/mL EPO, pH 7.0, 60 min, ΔA410 versus control
T2 construct: purchased Calbiochem
T2 sequence (P11678 251-715 limits assumed): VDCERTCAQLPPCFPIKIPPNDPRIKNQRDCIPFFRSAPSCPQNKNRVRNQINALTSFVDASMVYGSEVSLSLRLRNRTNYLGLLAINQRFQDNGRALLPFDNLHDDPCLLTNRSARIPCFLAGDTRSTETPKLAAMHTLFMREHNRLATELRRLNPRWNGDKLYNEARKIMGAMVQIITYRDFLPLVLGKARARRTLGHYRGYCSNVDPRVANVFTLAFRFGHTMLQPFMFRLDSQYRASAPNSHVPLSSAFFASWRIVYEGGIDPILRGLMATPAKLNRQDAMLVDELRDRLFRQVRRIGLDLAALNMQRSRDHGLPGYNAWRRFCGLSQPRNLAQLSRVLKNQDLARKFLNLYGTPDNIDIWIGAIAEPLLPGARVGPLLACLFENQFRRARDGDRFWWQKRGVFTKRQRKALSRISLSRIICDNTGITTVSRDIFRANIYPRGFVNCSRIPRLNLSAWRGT
T2 sequence (P11678 140-250 limits assumed): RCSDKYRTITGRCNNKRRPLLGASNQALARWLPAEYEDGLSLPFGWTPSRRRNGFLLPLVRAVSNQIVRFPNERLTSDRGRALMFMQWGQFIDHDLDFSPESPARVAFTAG
Method: as §1
We also examine the effect of methimazole on nitration catalyzed by MPO and EPO. 50 μM of salbutamol is reacted with 0.2 U/mL MPO, 5 mM NaNO2, and 2.1 mM H2O2 at pH buffer 7.0 in the presence of 0, 25, 50, and 100 μM methimazole (shown in FIG. 9, section B, traces a-d, respectively). In contrast to inhibition of nitration by LPO system, which was irreversible, inhibitory action of methimazole on MPO/H2O2/NO2^− is transitory.
The extent of nitration is expressed as a change in ΔA410 versus control (dapsone omitted) taken as 100% after 10, 30, and 60 minute reactions for LPO, MPO, and EPO nitrating systems, respectively. […]

Structure (SMILES)	Nitration of salbutamol by LPO/H2O2/NO2− (A410 versus time) ([1]; methimazole close to 100 μM (109 μM), 100 μM salbutamol, 73 nM LPO, 3.5 mM NaNO2, 4 mM H2O2, pH 7.0)	Nitrophenols, (%) EPO ([2]; dapsone 140 μM)	Nitrophenols, (%) EPO ([2]; dapsone 300 μM)	Nitrophenols, (%) LPO ([1]; dapsone 2.5 μM, 100 μM salbutamol)	Nitrophenols, (%) LPO ([1]; dapsone 5.0 μM, 100 μM salbutamol)	Nitrophenols, (%) LPO ([1]; dapsone 10.0 μM, 100 μM salbutamol)	inhibition at 50 µM ([1]; dapsone 50 μM, 97 μM salbutamol, 65 nM LPO, 3.4 mM NaNO2, 4 mM H2O2, pH 7.0)	Nitrophenols, (%) LPO ([1]; dapsone 50.0 μM, 100 μM salbutamol)
Cn1cc[nH]c1=S [Methimazole, 1-methyl-3H-imidazole-2-thione]	completely prevents	–	–	–	–	–	–	–
Nc1ccc(S(=O)(=O)c2ccc(N)cc2)cc1 [Dapsone, diamino-diphenyl sulfone]	–	57%	34 ± 2%	72.8 ± 2.0%	58.4 ± 1.4%	45.7 ± 2.0%	~86%	14.0 ± 2.7%
